Where two headings read alike, the source gives them in different places.
Test system: NO production in LPS-activated RAW 264.7 macrophage cells
Assay: Anti-NO activity assay: inhibition of NO production in LPS-activated RAW 264.7 macrophage cells
Format: cell-based
Conditions: LPS-activated RAW 264.7 cells, means of three independent replicates, ammonium pyrrolidinedithiocarbamate positive control, read-out: NO production inhibitory activity IC50 (RAW 264.7)
Description: Using a previously published method, the anti-inflammatory activity of all compounds (1–15) was assessed based on the suppression of NO generation in RAW264.7 cells.

Compound | IC50 (Mus musculus, RAW264.7) | IC50
COc1cc(OC)cc(-c2ccc(O)c(O[C@@H]3O[C@H](CO)[C@@H](O)[C@H](O)[C@H]3O)c2)c1 [Compound 15, 3′,5′-Dimethoxy-(1,1′-biphenyl)-3,4-diol 3-O-β-D-glucopyranoside] | > 40 µM | 
O=C(OC[C@H]1O[C@@H](Oc2cc(O)cc(O)c2C(=O)CCc2ccc(O)cc2)[C@H](O)[C@@H](O)[C@@H]1O)c1ccccc1 [Compound 10, phloridzin 6″-O-benzoate] |  | > 40 µM
COc1cc(OC)cc(-c2ccccc2OC2OC(CO)C(O)C(O)C2O)c1 (stereo not shown) [Compound 8, fortuneanoside P] | > 40 µM | 
COc1cccc2c1oc1c(OC)cc(O)cc12 [Compound 5] | > 40 µM | 
COc1cc(OC)c(OC2OC(CO)C(O)C(O)C2O)c(-c2ccccc2O)c1 (stereo not shown) [Compound 9, fortuneanoside Q] | > 40 µM | 
COc1cc(O)c(OC2OC(CO)C(O)C(O)C2O)c2c1oc1ccccc12 (stereo not shown) [Compound 7, fortuneanoside O] | > 40 µM | 
methylenebisphloridzin [Compound 13] |  | > 40 µM
COc1cc(/C=C/C(=O)OC[C@H]2O[C@@H](Oc3cc(O)cc(O)c3C(=O)CCc3ccc(O)cc3)[C@H](O)[C@@H](O)[C@@H]2O)ccc1O [Compound 4, malahupinoside F] | 29.6 µM | 
S=C(S)N1CCCC1 [Ammonium pyrrolidinedithiocarbamate, reference compound] |  | 20 ± 0.12 µM
O=C(/C=C/c1ccccc1)O[C@H]1[C@H](Oc2cc(O)cc(O)c2C(=O)CCc2ccc(O)cc2)O[C@H](CO)[C@@H](O)[C@@H]1O [Compound 2, malahupinoside D] | > 40 µM | 
O=C(O[C@H]1[C@H](Oc2cc(O)cc(O)c2C(=O)CCc2ccc(O)cc2)O[C@H](CO)[C@@H](O)[C@@H]1O)c1ccccc1 [Compound 1, malahupinoside C] | > 40 µM | 
O=C(/C=C/c1ccc(O)cc1)OC[C@H]1O[C@@H](Oc2cc(O)cc(O)c2C(=O)CCc2ccc(O)cc2)[C@H](O)[C@@H](O)[C@@H]1O [Compound 3, malahupinoside E] | > 40 µM | 
COc1cc(O)cc2c1oc1ccccc12 [Compound 14, 2-Hydroxy-4-methoxydibenzofuran] | > 40 µM | 
O=C(/C=C/c1ccc(O)cc1)Oc1ccc(CCC(=O)c2c(O)cc(O)cc2O[C@@H]2O[C@H](CO)[C@@H](O)[C@H](O)[C@H]2O)cc1 [Compound 12, 4-[3-[2-(β-D-Glucopyranosyloxy)-4,6-dihydroxyphenyl]-3-oxopropyl]phenyl(2E)-3-(4-hydroxyphenyl)-2-propenoate] | > 40 µM | 
O=C(C=Cc1ccccc1)OCC1OC(Oc2cc(O)cc(O)c2C(=O)CCc2ccc(O)cc2)C(O)C(O)C1O (stereo not shown) [Compound 11, phloridzin 6″-O-cinnamate] |  | > 40 µM
COc1cccc2c1oc1c(OC)cc(O)c(OC3OC(CO)C(O)C(O)C3O)c12 (stereo not shown) [Compound 6, fortuneanoside N] | > 40 µM | 

Source: article PMC11596612, “Nine New Glycosylated Compounds from the Leaves of the Medicinal Plant Malus hupehensis” (Molecules, 2024)
